In ChEMBL document CHEMBL1140953, “Anthracene based compounds as new L-type Ca2+ channel blockers: design, synthesis, and full biological profile” (J Med Chem, 2009):
Calls of active or inactive are those of the source. The calls are words filed in the database; no cut-off is given here.

How the values were obtained:
[1] = Displacement of (-)-[3H]devapamil from L-type calcium channel in rabbit smooth skeletal cells relative to verapamil
Oryctolagus cuniculus = species on record: Oryctolagus cuniculus; assay: (§1) Displacement of (-)-[3H]devapamil from L-type calcium channel in rabbit skeletal muscle cells; settings: concentration not given here
Rattus norvegicus [2] = species on record: Rattus norvegicus; assay: Vasorelaxant activity in Sprague-Dawley rat caudal artery ring assessed as reduction of caffeine-induced muscle contractions at 50 uM; format: functional, tissue-based
Rattus norvegicus [3] = species on record: Rattus norvegicus; assay: Vasorelaxant activity in Sprague-Dawley rat caudal artery ring assessed as reduction of phenylephrine-induced muscle contractions at 50 uM in Ca2+-free physiological salt solution; format: functional, tissue-based
[4] = target: T1, Voltage-gated L-type calcium channel (Rattus norvegicus, UniProt P22002+Q02485+P27732); assay: Inhibition of L-type calcium channel in Sprague-Dawley rat caudal artery smooth muscle cells at 15 uM by whole cell patch clamp method at 4 Hz
[5] = target: T1, Voltage-gated L-type calcium channel; assay: Inhibition of L-type calcium channel in Sprague-Dawley rat caudal artery smooth muscle cells at 15 uM by whole cell patch clamp method at -50 mV voltage
[6] = target: T1, Voltage-gated L-type calcium channel; assay: Inhibition of L-type calcium channel in Sprague-Dawley rat caudal artery smooth muscle cells assessed as inhibition of peak inward current at 15 uM by whole cell patch clamp method at -20 to 40 mV voltage
[7] = Displacement of (+)-[3H]isradipine from L-type calcium channel in rabbit skeletal muscle cells; parameters: species or system Oryctolagus cuniculus
[8] = target: T1, Voltage-gated L-type calcium channel; assay: Inhibition of L-type calcium channel in Sprague-Dawley rat caudal artery smooth muscle cells by whole cell patch clamp method
[9] = target: Voltage-dependent L-type calcium channel subunit alpha-1C (Mus musculus, UniProt Q01815); assay: Inhibition of mouse brain L-type Cav1.2 channel by radioligand binding assay
Sequence of Voltage-dependent L-type calcium channel subunit alpha-1C (Q01815 whole entry): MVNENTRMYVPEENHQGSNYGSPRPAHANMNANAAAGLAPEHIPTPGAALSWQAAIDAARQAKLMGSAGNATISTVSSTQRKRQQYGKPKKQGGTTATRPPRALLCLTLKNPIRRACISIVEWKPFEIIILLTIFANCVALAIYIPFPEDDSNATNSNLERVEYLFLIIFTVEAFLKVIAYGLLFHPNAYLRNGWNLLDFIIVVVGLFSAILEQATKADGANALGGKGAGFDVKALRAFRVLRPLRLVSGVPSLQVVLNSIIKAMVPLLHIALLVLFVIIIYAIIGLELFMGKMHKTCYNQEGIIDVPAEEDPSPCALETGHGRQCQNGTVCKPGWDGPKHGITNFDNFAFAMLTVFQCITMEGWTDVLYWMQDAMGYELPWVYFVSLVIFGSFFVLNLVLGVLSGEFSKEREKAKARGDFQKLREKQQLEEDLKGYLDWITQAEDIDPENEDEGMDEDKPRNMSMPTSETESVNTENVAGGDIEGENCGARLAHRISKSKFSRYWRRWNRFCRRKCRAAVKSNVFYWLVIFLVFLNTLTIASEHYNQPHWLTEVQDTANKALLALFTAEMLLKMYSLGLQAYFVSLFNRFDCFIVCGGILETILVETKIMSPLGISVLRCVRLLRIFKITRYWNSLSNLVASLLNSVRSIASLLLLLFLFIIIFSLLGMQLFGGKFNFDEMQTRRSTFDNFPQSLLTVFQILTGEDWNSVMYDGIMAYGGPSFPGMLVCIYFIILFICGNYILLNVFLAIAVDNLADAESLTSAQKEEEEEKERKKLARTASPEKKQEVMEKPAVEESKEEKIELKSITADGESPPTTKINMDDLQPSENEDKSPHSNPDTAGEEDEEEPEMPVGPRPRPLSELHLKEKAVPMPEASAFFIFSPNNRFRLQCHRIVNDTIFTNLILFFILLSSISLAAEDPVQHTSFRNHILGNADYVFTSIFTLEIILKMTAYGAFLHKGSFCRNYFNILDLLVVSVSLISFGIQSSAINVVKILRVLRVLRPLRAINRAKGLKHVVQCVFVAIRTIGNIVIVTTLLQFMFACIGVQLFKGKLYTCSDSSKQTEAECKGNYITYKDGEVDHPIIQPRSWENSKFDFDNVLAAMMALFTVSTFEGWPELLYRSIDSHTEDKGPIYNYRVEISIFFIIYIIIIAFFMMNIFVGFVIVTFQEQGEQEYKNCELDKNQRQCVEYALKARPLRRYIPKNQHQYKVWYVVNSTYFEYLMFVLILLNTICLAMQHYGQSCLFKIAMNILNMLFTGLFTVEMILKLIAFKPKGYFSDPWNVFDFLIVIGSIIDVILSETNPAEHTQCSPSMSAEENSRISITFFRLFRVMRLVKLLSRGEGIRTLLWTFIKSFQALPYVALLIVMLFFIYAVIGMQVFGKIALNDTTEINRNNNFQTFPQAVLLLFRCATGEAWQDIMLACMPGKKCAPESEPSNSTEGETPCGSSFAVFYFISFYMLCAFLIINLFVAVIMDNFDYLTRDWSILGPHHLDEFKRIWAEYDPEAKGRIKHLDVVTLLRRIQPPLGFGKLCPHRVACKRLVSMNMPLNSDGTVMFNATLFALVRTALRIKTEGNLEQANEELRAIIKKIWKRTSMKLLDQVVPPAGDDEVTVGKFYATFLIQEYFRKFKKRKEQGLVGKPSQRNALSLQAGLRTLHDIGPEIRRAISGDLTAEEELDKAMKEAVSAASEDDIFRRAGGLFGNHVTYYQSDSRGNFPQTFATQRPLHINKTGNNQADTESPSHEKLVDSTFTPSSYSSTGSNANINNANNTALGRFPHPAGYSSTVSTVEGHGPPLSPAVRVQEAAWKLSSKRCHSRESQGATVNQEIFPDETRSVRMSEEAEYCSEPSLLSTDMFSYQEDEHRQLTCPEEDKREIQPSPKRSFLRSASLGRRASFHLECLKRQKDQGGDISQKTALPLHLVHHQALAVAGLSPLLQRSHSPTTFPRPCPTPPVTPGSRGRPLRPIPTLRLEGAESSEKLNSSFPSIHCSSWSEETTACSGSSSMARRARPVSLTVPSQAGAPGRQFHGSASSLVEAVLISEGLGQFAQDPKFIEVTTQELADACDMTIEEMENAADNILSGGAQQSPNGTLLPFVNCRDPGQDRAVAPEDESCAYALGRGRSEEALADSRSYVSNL

[10] = Vasorelaxant activity in Sprague-Dawley rat caudal artery ring assessed as reduction of KCl-induced muscle contractions at 50 uM relative to control; format: functional; parameters: scale not given: the % may be the effect or the level left
[11] = target: T1, Voltage-gated L-type calcium channel; assay: Inhibition of L-type calcium channel in Sprague-Dawley rat caudal artery smooth muscle cells at 15 uM by whole cell patch clamp method at 2 Hz
[12] = target: T1, Voltage-gated L-type calcium channel; assay: Inhibition of L-type calcium channel in Sprague-Dawley rat caudal artery smooth muscle cells assessed as decrease in amplitude at 15 uM by whole cell patch clamp method; settings: TDE = time-dependent effect
Rattus norvegicus [13] = species on record: Rattus norvegicus; assay: Vasorelaxant activity in Sprague-Dawley rat caudal artery ring assessed as reduction of caffeine-induced muscle contractions at 50 uM in Ca2+-free physiological salt solution; format: functional, tissue-based
[14] = as §1; parameters: species or system Oryctolagus cuniculus

| Structure (SMILES) | Activity (Rattus norvegicus [2]) | Activity (Rattus norvegicus [3]) | also measured |
| --- | --- | --- | --- |
| COc1ccc(CCN(C)CCCC(C#N)(c2ccc(OC)c(OC)c2)C(C)C)cc1OC (configuration not stated) [VERAPAMIL] | – | – | IC50 [1]: 60.2 nM; inhibition (Oryctolagus cuniculus): 100% |
| O=C1NC(=O)C2C1C1c3ccccc3C2(CO)c2ccccc21 (configuration not stated) | Active | Active | – |
| O=C1NC(=O)C2C3c4ccccc4C(c4ccccc43)C12 (configuration not stated) | Active | Active | – |
| O=C1NC(=O)C2C3c4ccccc4C(c4ccc(Cl)cc43)C12 (configuration not stated) | – | inactive | Activity [4]: Active; Activity [5]: Active; Activity [6]: Active; IC50 [7]: 6.3 µM; IC50 [8]: 16.5 µM; Activity ([8]; rat): Dose-dependent effect; IC50 [9]: 19.4 µM; Activity [10]: 100%; Activity [11]: Active; Activity [12]: tde; Activity (Rattus norvegicus [13]): inactive; IC50 [14]: 5.6 µM |
| O=C1NC(=O)C2C1C1c3ccccc3C2([N+](=O)[O-])c2ccccc21 (configuration not stated) | Active | Active | – |
| O=C1NC(=O)C2C3c4ccccc4C(c4cccc(Cl)c43)C12 (configuration not stated) | Active | Active | Activity [10]: 90% |
| O=C1NC(=O)C2C1C1c3ccccc3C2(Cl)c2ccccc21 (configuration not stated) | Active | Active | – |
| Cc1ccc2c(c1)C1c3ccccc3C2C2C(=O)NC(=O)C12 (configuration not stated) | Active | Active | Activity [10]: 90% |
| CC12c3ccccc3C(c3ccccc31)C1C(=O)NC(=O)C12 (configuration not stated) | Active | Active | – |
| O=CC12c3ccccc3C(c3ccccc31)C1C(=O)NC(=O)C12 (configuration not stated) | Active | Active | – |
| N#CC12c3ccccc3C(c3ccccc31)C1C(=O)NC(=O)C12 (configuration not stated) | Active | Active | – |
| C#CCN1C(=O)C2C3c4ccccc4C(c4ccccc43)C2C1=O (configuration not stated) | Active | Active | – |
